The EC50 is the concentration giving half of the maximal effect. Lower therefore signals a more potent agent. The chromatographic logP is a lipophilicity value derived from retention on a column. A high value points to a more lipophilic compound. In general, LC50 refers to the concentration lethal to half of the exposed cells or organisms. Read a high LC50 as a less lethal substance.

These results are taken from patent publication US9074289B2, “Environmentally friendly corrosion inhibitor” (NALCO COMPANY, priority 2011, dated 2015).

One data set deals with Skeletonema costatum. As to the kind of experiment: Acute aquatic toxicity, ISO 10253. It counts as in vivo. The note with it: Hec50, 72 h, Method: ISO 10253. The procedure: (§1) (i) acute toxicity to the most sensitive marine species (skeletonema costatum) must be greater than EC50 of 10 mg/L; (ii) bioaccumulation potential (as indicated by Log Pow, the octanol-water partition coefficient) must be below 3 or the molecular weight must be greater than 700; and (iii) biodegradation in 28 days is greater than 60%. Corrosion inhibitor intermediates such as the quaternary ammonium salt were tested for their level of acute aquatic toxicity (Table 9), Log Pow (Table 10), and their ability to biodegrade in 28 days (Table 10).

The nature of data set [1]: Log Pow (octanol-water partition coefficient), OECD 117. It counts as physicochemical. As to conditions: n-octanol/water; Method: OECD 117.
Text: The bioaccumulation potential of chemical substances has generally been determined from the n-octanol/water partition coefficient (expressed as log Pow) and the bioconcentration factor. The log Pow represents the ratio of a material that dissolves or disperses in octanol (the oil phase) versus water. This coefficient is used as a chemical surrogate for bioaccumulative potential. A log Pow of less than ten is preferred, a log Pow of less than six is more preferred, and a log Pow of less than three is most preferred.
as §1

Data set [2] in a line: Acute aquatic toxicity, ISO 146669. As to conditions: Acartia tonsa, in vivo, Method: ISO 146669. The procedure: as §1
The test system of another data set is Corophium volutator. As to the kind of experiment: Acute aquatic toxicity, PARCOM. It counts as in vivo. As to conditions: Method: PARCOM. The procedure: as §1
Data set [3] is described as follows: Biodegradation in 28 days, Marine BODIS. The note with it: Method: Marine BODIS.
Text: Biodegradation is the chemical breakdown of a material by microorganisms into nutrients that can be used by other organisms. Generally, a complex molecule can be broken down into carbon dioxide, water, microbial biomass, and/or inorganic salts. A biodegradation of 10% or greater is preferred, biodegradation of 20% or greater is more preferred, and a biodegradation of 60% or greater is most preferred.
as §1

Turning to `CCOC(=O)c1cc[n+](Cc2cccc3ccccc23)cc1.[Cl-]` [Compound 1], in the data set with Skeletonema costatum, the EC50 was over 10 µg/mL. The compound further showed a chromatographic logP in data set [1] of 2.7.
In the case of `NC(=O)c1ccc[n+](Cc2cccc3ccccc23)c1.[Cl-]` [Compound 4], the LC50 at 48 h in data set [2] was determined as 105 µg/mL. Moreover, in the data set on Corophium volutator, the “Corophium volutator 10 d LC50” value is listed as 6116.15 mg/kg. The same compound returned a chromatographic logP in data set [1] of 2.1. Moreover, the “Biodegradation (28 days)” value in data set [3] was 40%^7.
